Experiments:
[1] = target: T1, EP2 (Homo sapiens, UniProt P43116); assay: EP2 cAMP assay; assay type: cell-based
Text: (§1) U.S. patent application Ser. No. 11/553,143, filed on Oct. 26, 2006, incorporated by reference herein, describes the methods used to obtain the in vitro data in Table 1 below.

[2] = target: T1, EP2; assay: EP2 binding (Ki)
Text: as §1

[3] = target: T1, EP2; assay: EP2 Ca2+ signal assay; assay type: cell-based
Text: as §1

[4] = target: T2, EP4 (Homo sapiens, UniProt P35408); assay: EP4 Ca2+ signal assay; assay type: cell-based
T2 sequence (P35408 whole entry): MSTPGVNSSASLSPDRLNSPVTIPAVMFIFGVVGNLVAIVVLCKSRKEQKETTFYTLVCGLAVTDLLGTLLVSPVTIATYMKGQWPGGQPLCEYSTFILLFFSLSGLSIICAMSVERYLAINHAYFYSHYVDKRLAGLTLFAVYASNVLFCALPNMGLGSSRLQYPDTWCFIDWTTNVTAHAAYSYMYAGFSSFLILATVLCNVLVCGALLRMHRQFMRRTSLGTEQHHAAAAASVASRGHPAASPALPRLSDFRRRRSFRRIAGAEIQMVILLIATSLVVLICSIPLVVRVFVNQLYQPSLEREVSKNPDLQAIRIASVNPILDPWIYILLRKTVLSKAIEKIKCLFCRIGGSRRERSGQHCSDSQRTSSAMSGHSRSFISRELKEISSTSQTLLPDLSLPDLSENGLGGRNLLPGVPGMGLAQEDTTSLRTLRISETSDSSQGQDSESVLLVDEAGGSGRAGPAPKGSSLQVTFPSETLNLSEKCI
Text: as §1

[5] = target: T2, EP4; assay: EP4 binding (Ki)
Text: as §1

[6] = target: T3, DP (Homo sapiens, UniProt Q13258); assay: Other receptors Ca2+ assay, DP; assay type: cell-based; conditions: DP receptor
T3 sequence (Q13258 1-359): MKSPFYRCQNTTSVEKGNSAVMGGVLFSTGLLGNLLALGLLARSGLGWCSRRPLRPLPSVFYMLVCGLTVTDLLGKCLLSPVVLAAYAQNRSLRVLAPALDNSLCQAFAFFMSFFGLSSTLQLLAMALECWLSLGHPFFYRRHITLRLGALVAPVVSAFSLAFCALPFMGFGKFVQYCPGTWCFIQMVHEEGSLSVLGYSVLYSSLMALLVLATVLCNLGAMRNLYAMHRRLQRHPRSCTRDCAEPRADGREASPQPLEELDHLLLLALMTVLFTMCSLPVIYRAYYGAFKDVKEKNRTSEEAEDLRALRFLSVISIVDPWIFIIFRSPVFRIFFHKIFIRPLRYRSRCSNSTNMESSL
Text: as §1

[7] = target: T4, EP1 (Homo sapiens, UniProt P34995); assay: Other receptors Ca2+ assay, EP1; assay type: cell-based; conditions: EP1 receptor
T4 sequence (P34995 1-402): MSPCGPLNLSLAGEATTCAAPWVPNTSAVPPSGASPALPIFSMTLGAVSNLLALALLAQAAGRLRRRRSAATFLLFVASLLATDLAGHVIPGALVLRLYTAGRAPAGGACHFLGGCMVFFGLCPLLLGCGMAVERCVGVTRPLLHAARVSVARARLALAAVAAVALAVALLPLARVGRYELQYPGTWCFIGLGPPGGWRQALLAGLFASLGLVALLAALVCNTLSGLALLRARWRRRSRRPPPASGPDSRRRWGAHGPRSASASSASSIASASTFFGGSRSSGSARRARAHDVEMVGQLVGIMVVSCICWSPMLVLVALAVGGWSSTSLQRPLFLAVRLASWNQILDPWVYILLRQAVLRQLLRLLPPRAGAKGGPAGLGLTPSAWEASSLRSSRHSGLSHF
Text: as §1

[8] = target: T5, EP3 (Homo sapiens, UniProt P43115); assay: Other receptors Ca2+ assay, EP3; assay type: cell-based; conditions: EP3 receptor
T5 sequence (P43115 1-390): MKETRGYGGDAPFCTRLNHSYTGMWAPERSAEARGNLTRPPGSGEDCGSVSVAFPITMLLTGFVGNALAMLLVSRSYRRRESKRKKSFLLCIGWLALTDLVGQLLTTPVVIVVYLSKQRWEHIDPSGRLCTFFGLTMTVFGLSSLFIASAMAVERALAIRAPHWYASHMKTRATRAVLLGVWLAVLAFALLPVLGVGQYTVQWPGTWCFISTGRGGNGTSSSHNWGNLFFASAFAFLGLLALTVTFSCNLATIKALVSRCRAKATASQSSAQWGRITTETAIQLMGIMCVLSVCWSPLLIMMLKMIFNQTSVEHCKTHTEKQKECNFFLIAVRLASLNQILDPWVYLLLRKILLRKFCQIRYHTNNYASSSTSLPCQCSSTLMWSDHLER
Text: as §1

[9] = target: T6, TP (Homo sapiens, UniProt P21731); assay: Other receptors Ca2+ assay, TP; assay type: cell-based; conditions: TP receptor
T6 sequence (P21731 1-343): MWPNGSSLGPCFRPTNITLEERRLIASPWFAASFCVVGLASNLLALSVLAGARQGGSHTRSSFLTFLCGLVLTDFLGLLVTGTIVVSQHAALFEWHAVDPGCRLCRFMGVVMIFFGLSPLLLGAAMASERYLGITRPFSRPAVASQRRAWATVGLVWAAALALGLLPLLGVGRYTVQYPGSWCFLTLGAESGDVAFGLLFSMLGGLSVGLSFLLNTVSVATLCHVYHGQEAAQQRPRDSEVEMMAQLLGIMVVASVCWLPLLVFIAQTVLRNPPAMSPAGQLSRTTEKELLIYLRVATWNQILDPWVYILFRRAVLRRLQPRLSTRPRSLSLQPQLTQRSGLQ
Text: as §1

[10] = system: DOG; assay: Dog intraocular pressure test; assay type: in vivo; conditions: Conc. 0.01 g/100 mL
Text: (§2) U.S. Pat. No. 7,091,231, incorporated by reference herein, describes the methods used to obtain the in vivo test results presented in Table 2.

[11] = system: DOG; assay: Dog ocular hyperemia; assay type: in vivo; conditions: Conc. 0.01 g/100 mL
Text: as §2

[12] = system: MONKEY; assay: Monkey intraocular pressure test; assay type: in vivo; conditions: Conc. 0.01 g/100 mL
Text: as §2

T1 sequence (P43116 whole entry): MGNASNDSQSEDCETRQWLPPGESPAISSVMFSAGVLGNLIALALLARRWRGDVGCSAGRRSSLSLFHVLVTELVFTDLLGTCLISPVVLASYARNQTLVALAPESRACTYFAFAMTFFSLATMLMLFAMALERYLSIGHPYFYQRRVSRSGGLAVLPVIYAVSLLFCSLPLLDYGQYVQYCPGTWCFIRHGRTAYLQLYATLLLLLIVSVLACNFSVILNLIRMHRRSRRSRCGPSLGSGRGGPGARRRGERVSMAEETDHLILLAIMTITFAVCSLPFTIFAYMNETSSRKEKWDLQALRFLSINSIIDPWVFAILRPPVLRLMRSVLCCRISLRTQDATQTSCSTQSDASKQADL

Structure (SMILES) | EC50 [1] [nM] | Ki [2] [nM] | EC50 [3] [nM] | EC50 [4] [nM] | Ki [5] [nM] | EC50 [6] [nM] | EC50 [7] [nM] | EC50 [8] [nM] | EC50 [9] [nM] | DOG Max. hyperemia [11] | DOG Max. ΔIOP [10] [%] | MONKEY Max. ΔIOP [12] [%]
CCCCCC(O)/C=C/[C@@H]1[C@@H](CCCc2ccc(C(=O)O)s2)[C@H](Cl)C[C@H]1O (single isomer, unassigned) [Entry 15] | 0.4 | 7 | 0.8 | 0.2 | 4 | 10 | 1.3 | 6 | 178 |  |  | 
CCCCCC(O)/C=C/[C@@H]1[C@@H](CCCc2ccc(C(=O)O)s2)[C@H](Cl)C[C@H]1O (single isomer, unassigned) [Entry 16] | 5 | 202 | 26 | 42 | 577 | 7730 | 86 | 421 |  |  |  | 
CCCCC[C@@H]1[C@@H](CCCc2ccc(C(=O)O)s2)[C@H](Cl)C[C@H]1O [Entry 1, 5-[3-((1R,2R,3R,5R)-5-Chloro-3-hydroxy-2-pentyl-cyclopentyl)-propyl]-thiophene-2-carboxylic acid] | 1 | 6 | 74 | 9100 |  | 2080 |  | 1740 | 187 |  |  | 
CCCCCCCC[C@@H]1[C@@H](CCCc2ccc(C(=O)OCCO)s2)[C@H](Cl)C[C@H]1O [Entry 1-8, 5-[3-((1R,2R,3R,5R)-5-Chloro-3-hydroxy-2-octyl-cyclopentyl)-propyl]-thiophene-2-carboxylic acid 2-hydroxy-ethyl ester] |  |  |  |  |  |  |  |  |  | 2.0 | 35 | 53
CCCCCCCC[C@@H]1[C@@H](CCCc2ccc(C(=O)OC(C)C)s2)[C@H](Cl)C[C@H]1O [Entry 1-9] |  |  |  |  |  |  |  |  |  | 0.9 | 22 | 
CCCCCC[C@@H]1[C@@H](CCCc2ccc(C(=O)O)s2)[C@H](Cl)C[C@H]1O [Entry 2, 5-[3-((1R,2R,3R,5R)-5-Chloro-2-hexyl-3-hydroxy-cyclopentyl)-propyl]-thiophene-2-carboxylic acid] | 0.7 | 4 | 405 | 9380 | 754 | 1780 |  | 5990 | 2990 |  |  | 
CCCCCCCCC[C@@H]1[C@@H](CCCc2ccc(C(=O)O)s2)[C@H](Cl)C[C@H]1O [Entry 5, 5-[3-((1R,2R,3R,5R)-5-Chloro-3-hydroxy-2-nonyl-cyclopentyl)-propyl]-thiophene-2-carboxylic acid] | 3 | 1.5 | 21 | > 10000 | 1230 |  |  | 6660 |  |  |  | 
O=C(O)c1ccc(CCC[C@@H]2[C@@H](CCCCCCCCO)[C@H](O)C[C@H]2Cl)s1 [Entry 10, 5-{3-[(1R,2R,3R,5R)-5-Chloro-3-hydroxy-2-(8-hydroxy-octyl)-cyclopentyl]-propyl}-thiophene-2-carboxylic acid] | < 1 | 5 | 69 | > 10000 |  | 6130 |  |  |  |  |  | 
O=C(O)c1ccc(CCC[C@@H]2[C@@H](CCCCCCCO)[C@H](O)C[C@H]2Cl)s1 [Entry 11, 5-{3-[(1R,2R,3R,5R)-5-Chloro-3-hydroxy-2-(7-hydroxy-heptyl)-cyclopentyl]-propyl}-thiophene-2-carboxylic acid] | 0.3 | 9 | 10 | 23700 | 1520 | 1950 |  |  |  |  |  | 
CCCC/C=C/CC[C@@H]1[C@@H](CCCc2ccc(C(=O)O)s2)[C@H](Cl)C[C@H]1O [Entry 18, 5-(3-((1R,2R,3R,5R)-5-chloro-3-hydroxy-2-((E)-oct-3-enyl)cyclopentyl)propyl)thiophene-2-carboxylic acid] | 2 | 18 | 51 | 713 |  | 2800 | 4930 | 593 |  |  |  | 
CCCCCCCCCC[C@@H]1[C@@H](CCCc2ccc(C(=O)O)s2)[C@H](Cl)C[C@H]1O [Entry 19, 5-(3-((1R,2R,3R,5R)-5-chloro-2-decyl-3-hydroxycyclopentyl)propyl)thiophene-2-carboxylic acid] | 2 | 6 | 1160 | > 10000 | 7100 |  |  |  |  |  |  | 

The next lines start with results.

EC50 [1] [nM] | Ki [2] [nM] | EC50 [3] [nM] | EC50 [4] [nM] | Ki [5] [nM] | EC50 [6] [nM] | EC50 [7] [nM] | EC50 [8] [nM] | EC50 [9] [nM] | DOG Max. hyperemia [11] | Structure (SMILES) | DOG Max. ΔIOP [10] [%] | MONKEY Max. ΔIOP [12] [%]
14 | 37 | 531 |  |  | 1000 | > 10000 |  |  |  | O=C(O)c1ccc(CCC[C@@H]2[C@@H](C=CCCCCCCO)[C@H](O)C[C@H]2Cl)s1 [Entry 6, 5-{3-[(1R,2R,3R,5R)-5-Chloro-3-hydroxy-2-(8-hydroxy-oct-1-enyl)-cyclopentyl]-propyl}-thiophene-2-carboxylic acid] |  | 
55 | 60 | 303 | 14800 |  | 573 |  | 1160 | 249 |  | CCCC=C[C@@H]1[C@@H](CCCc2ccc(C(=O)O)s2)[C@H](Cl)C[C@H]1O [Entry 7, 5-[3-((1R,2R,3R,5R)-5-Chloro-3-hydroxy-2-pent-1-enyl-cyclopentyl)-propyl]-thiophene-2-carboxylic acid] |  | 
8 | 14 | 112 | 9100 | 186 | 337 |  | 544 | 230 |  | CCCCCC=C[C@@H]1[C@@H](CCCc2ccc(C(=O)O)s2)[C@H](Cl)C[C@H]1O [Entry 8, 5-[3-((1R,2R,3R,5R)-5-Chloro-2-hept-1-enyl-3-hydroxy-cyclopentyl)-propyl]-thiophene-2-carboxylic acid] |  | 
15 | 18 | 512 | 34200 | 695 | 10500 |  |  |  |  | CCCCCCCCC=C[C@@H]1[C@@H](CCCc2ccc(C(=O)O)s2)[C@H](Cl)C[C@H]1O [Entry 9, 5-[3-((1R,2R,3R,5R)-5-Chloro-2-dec-1-enyl-3-hydroxy-cyclopentyl)-propyl]-thiophene-2-carboxylic acid] |  | 
3.6 | 60 | 46 | 31400 | 2390 | 253 |  |  |  |  | O=C(O)c1ccc(CCC[C@@H]2[C@@H](C=CCCCCCO)[C@H](O)C[C@H]2Cl)s1 [Entry 13, 5-{3-[(1R,2R,3R,5R)-5-Chloro-3-hydroxy-2-(7-hydroxy-hept-1-enyl)-cyclopentyl]-propyl}-thiophene-2-carboxylic acid] |  | 
4 | 6 | 15 | > 10000 | 1110 | 11700 |  | 3000 |  |  | CCCCCCCC=C[C@@H]1[C@@H](CCCc2ccc(C(=O)O)s2)[C@H](Cl)C[C@H]1O [Entry 14, 5-[3-((1R,2R,3R,5R)-5-Chloro-3-hydroxy-2-non-1-enyl-cyclopentyl)-propyl]-thiophene-2-carboxylic acid] |  | 

Source: patent US9006464B2, “Substituted cyclopentanes having prostaglandin activity” (Allergan, Inc., priority 2007, dated 2015)
